Article PMC11822212, “High-throughput screening identifies Aurora kinase B as a critical therapeutic target for Merkel cell carcinoma” (Nature Communications, 2025)
Several values for one entry are separate records, joined by “and”; a condition that tells them apart may be missing. Equal entries are not always repeated. Structures can show the parent of a compound that is named as a salt. Where two headings read alike, the source gives them in different places.

Experiments:
[1] = system: MCC13 cells (VN-MCC); test: qHTS cell viability (CellTiter-Glo, 72 h; primary and follow-up small molecule screen); type: cell-based, human
[2] = system: MCC26 cells (VN-MCC); test: as above; type: cell-based, human
[3] = system: UISO cells (VN-MCC); test: as above; type: cell-based, human
[4] = system: WAGA cells (VP-MCC); test: as above; type: cell-based, human
[5] = system: MKL-1 cells (VP-MCC); test: as above; type: cell-based, human
[6] = system: MKL-2 cells (VP-MCC); test: as above; type: cell-based, human
[7] = system: HACAT cells; test: qHTS cell viability (CellTiter-Glo, 72 h; primary screen), control cell line; type: cell-based, human
[8] = system: HEK293T cells; test: as above; type: cell-based, human
[9] = system: NIH-3T3 cells; test: as above; type: cell-based, mouse
[10] = system: CRL-7250 cells; test: as above; type: cell-based
[11] = system: MCC cell lines (WAGA, MKL-1, MKL-2, MCC13, MCC26, UISO); test: qHTS cell viability, all six MCC cell lines as a group (mean AUC, MCC.avg); type: cell-based, human
[12] = system: VP-MCC cell lines (WAGA, MKL-1, MKL-2); test: qHTS cell viability, VP-MCC cell lines as a group (mean AUC, VP.MCC.avg); type: cell-based, human
[13] = system: VN-MCC cell lines (MCC13, MCC26, UISO); test: qHTS cell viability, VN-MCC cell lines as a group (mean AUC, VN.MCC.avg); type: cell-based, human
[14] = system: control cell lines (HACAT, HEK293T, CRL-7250, NIH-3T3); test: qHTS cell viability, control cell lines as a group (mean AUC, Control.avg); type: cell-based
[15] = system: six MCC cell lines and four control cell lines; test: qHTS cell viability, all 10 cell lines screened; type: cell-based
[16] = NPC library, qHTS dose-response AUC, MCC13
[17] = NPC library, qHTS dose-response AUC, MCC26
[18] = NPC library, qHTS dose-response AUC, UISO
[19] = NPC library, qHTS dose-response AUC, WAGA
[20] = NPC library, qHTS dose-response AUC, MKL1
[21] = NPC library, qHTS dose-response AUC, MKL2
[22] = NPC library, qHTS dose-response AUC, HACAT control
[23] = NPC library, qHTS dose-response AUC, HEK293T control
[24] = NPC library, qHTS dose-response AUC, NIH3T3 control
[25] = NPC library, qHTS dose-response AUC, CRL7250 control
[26] = NPC library, mean AUC of six MCC cell lines
[27] = NPC library, mean AUC of VP-MCC cell lines
[28] = NPC library, therapeutic window: Control avg AUC minus VP-MCC avg AUC
[29] = NPC library, mean AUC of VN-MCC cell lines
[30] = NPC library, therapeutic window: Control avg AUC minus VN-MCC avg AUC
[31] = NPC library, mean AUC of control cell lines
[32] = NPC library, therapeutic window: Control avg AUC minus MCC avg AUC

Compound	MCC13_AUC [1, 16]	MCC26_AUC [2, 17]	UISO_AUC [3, 18]	WAGA_AUC [4, 19]	MKL1_AUC [5, 20]	MKL2_AUC [6, 21]	HACAT_AUC [7, 22]	HEK293T_AUC [8, 23]	NIH3T3_AUC [9, 24]	CRL7250_AUC [10, 25]	MCC_Avg_AUC [11, 26]	VP-MCC_Avg_AUC [12, 27]	Control-VP-MCC [12, 28]	VN-MCC_Avg_AUC [13, 29]	Control-VN-MCC [13, 30]	Control_Avg_AUC [14, 31]	Control-MCC [15, 32]	other results
CCCCOc1ccc(C(=O)CCN2CCCCC2)cc1 [Dyclonine hydrochloride]	493.918	466.065	466.874	405.649	424.663	401.71	461.491	441.492	489.536	454.097	443.147	410.674	50.9798	475.619	-13.9648	461.654	18.5075	
CCOC(=O)[C@H](CCc1ccccc1)N[C@@H](C)C(=O)N1CCC[C@H]1C(=O)O [Enalapril]	506.069	507.531	518.678	302.495	312.443	179.263	446.912	487.46	481.677	492.563	387.746	264.734	212.42	510.759	-33.606	477.153	89.4069	
CC(O)C(=O)O.CCOc1ccc2nc3cc(N)ccc3c(N)c2c1.O [Ethacridine lactate hydrate]																		MCC13_AUC [1]: 439.497; MCC26_AUC [2]: 472.196; UISO_AUC [3]: 374.889; WAGA_AUC [4]: 335.85; MKL1_AUC [5]: 391.16; MKL2_AUC [6]: 356.151; HACAT_AUC [7]: 492.059; HEK293T_AUC [8]: 374.537; NIH3T3_AUC [9]: 456.142; CRL7250_AUC [10]: 429.434; MCC_Avg_AUC [11]: 394.957; Control-VP-MCC [12]: 76.9894; VP-MCC_Avg_AUC [12]: 361.054; Control-VN-MCC [13]: 9.1824; VN-MCC_Avg_AUC [13]: 428.861; Control_Avg_AUC [14]: 438.043; Control-MCC [15]: 43.0859
CCOc1ccc2nc(S(N)(=O)=O)sc2c1 [Ethoxzolamide]	463.773	444.564	429.085	399.58	398.827	435.522	484.155	465.047	462.958	486.514	428.559	411.31	63.3587	445.807	28.8613	474.669	46.11	
CCCCCCCCCCCCCCCC[N+](C)(C)CC [Ethylhexadecyldimethylammonium bromide]	452.398	497.964	345.634	248.495	275.727	235.245	288.244	340.309	447.34	362.003	342.577	253.156	106.318	431.999	-72.525	359.474	16.8967	Area under the dose-response curve (AUC) MCC13 Replicate 1 ([1]; follow-up screen, MCC13, replicate 1): 444.8; Area under the dose-response curve (AUC) MCC13 Replicate 2 ([1]; follow-up screen, MCC13, replicate 2): 473.1; Area under the dose-response curve (AUC) MCC13 Replicate 3 ([1]; follow-up screen, MCC13, replicate 3): 416.6; Area under the dose-response curve (AUC) MCC26 Replicate 1 ([2]; follow-up screen, MCC26, replicate 1): 420.1; Area under the dose-response curve (AUC) MCC26 Replicate 2 ([2]; follow-up screen, MCC26, replicate 2): 377.6; Area under the dose-response curve (AUC) MCC26 Replicate 3 ([2]; follow-up screen, MCC26, replicate 3): 430.8; Area under the dose-response curve (AUC) UISO Replicate 1 ([3]; follow-up screen, UISO, replicate 1): 324.1; Area under the dose-response curve (AUC) UISO Replicate 2 ([3]; follow-up screen, UISO, replicate 2): 364.3; Area under the dose-response curve (AUC) UISO Replicate 3 ([3]; follow-up screen, UISO, replicate 3): 313.9; Area under the dose-response curve (AUC) WAGA Replicate 1 ([4]; follow-up screen, WAGA, replicate 1): 383.4; Area under the dose-response curve (AUC) WAGA Replicate 2 ([4]; follow-up screen, WAGA, replicate 2): 363.0; Area under the dose-response curve (AUC) WAGA Replicate 3 ([4]; follow-up screen, WAGA, replicate 3): 382.5; Area under the dose-response curve (AUC) MKL-1 Replicate 1 ([5]; follow-up screen, MKL-1, replicate 1): 317.9; Area under the dose-response curve (AUC) MKL-1 Replicate 2 ([5]; follow-up screen, MKL-1, replicate 2): 305.9; Area under the dose-response curve (AUC) MKL-1 Replicate 3 ([5]; follow-up screen, MKL-1, replicate 3): 330.7; Area under the dose-response curve (AUC) MKL-2 Replicate 1 ([6]; follow-up screen, MKL-2, replicate 1): 333.8; Area under the dose-response curve (AUC) MKL-2 Replicate 2 ([6]; follow-up screen, MKL-2, replicate 2): 320.4; Area under the dose-response curve (AUC) MKL-2 Replicate 3 ([6]; follow-up screen, MKL-2, replicate 3): 334.2
Cn1c(=O)c2c(ncn2CCO)n(C)c1=O [Etofylline]	458.423	435.802	431.565	399.645	387.045	336.333	491.237	445.08	458.11	458.019	408.136	374.341	88.7707	441.93	21.1816	463.112	54.9761	
CC(Cc1ccccc1)NCCn1cnc2c1c(=O)n(C)c(=O)n2C (centres unmarked) [Fenethylline hydrochloride]																		MCC13_AUC [1]: 447.432; MCC26_AUC [2]: 413.898; UISO_AUC [3]: 437.462; WAGA_AUC [4]: 435.275; MKL1_AUC [5]: 406.458; MKL2_AUC [6]: 435.518; HACAT_AUC [7]: 497.83; HEK293T_AUC [8]: 471.885; NIH3T3_AUC [9]: 480.657; CRL7250_AUC [10]: 496.56; MCC_Avg_AUC [11]: 429.34; Control-VP-MCC [12]: 60.9825; VP-MCC_Avg_AUC [12]: 425.75; Control-VN-MCC [13]: 53.8023; VN-MCC_Avg_AUC [13]: 432.93 and 432.931; Control_Avg_AUC [14]: 486.733; Control-MCC [15]: 57.3924
